In series [1] the test system is histamine subtype 3 (H3) receptor. Particulars: cited from earlier work.
The conditions of series [2]: cited from earlier work.
Series [3] relates to HCT116 cells. The series is described as follows: HCT116 colon carcinoma cell viability assay. The format is cell-based. Particulars: for effect on HCT116 cell viability: after 48 hours.
Series [4] concerns the target T1, histamine H3 (Homo sapiens, UniProt Q9Y5N1). The series is described as follows: radioligand binding assay, H3.
The target in series [5] is T2, Dopamine Transporter, DAT (Homo sapiens, UniProt Q01959). The series is described as follows: radioligand binding assay, DAT.
Series [6] has as its target T3, norepinephrine transporter, NET (Homo sapiens, UniProt P23975). The series is described as follows: radioligand binding assay, NET.
The target of series [7] is T1, histamine H3. The series is described as follows: functional assay, H3. The format is biochemical.
Series [8] deals with T2, Dopamine Transporter, DAT. The series is described as follows: functional assay, DAT. The format is biochemical.
The target in series [9] is T3, norepinephrine transporter, NET. In words: functional assay, NET. Type of series: biochemical.
For series [10], the system named is 68 GPCRs, ion channels and transporters. In words: external panel of radioligand binding assays.
The target in series [11] is SERT (Homo sapiens, UniProt P31645). The series is described as follows: SERT activity in receptor profiling. The format is binding.
For series [12] the following is noted: standard cytotoxicity assay.
For series [13] the following is noted: cited from earlier work. This is another data set of the same source.
Series [14] relates to SW620 cells. In words: BrdU proliferation assay, SW620. Particulars: 10 μM, 48 hours. Type of series: cell-based.
For series [15], the system named is H520 cells. In words: BrdU proliferation assay, H520. Particulars: 10 μM, 48 hours. Type of series: cell-based.
Series [16] concerns SW620 cells. The series is described as follows: cell viability, SW620. The format is cell-based.
For series [17], the system named is H520 cells. The series is described as follows: cell viability, H520. Type of series: cell-based.

Where two headings read alike, the source gives them in different places.

T3 sequence (P23975 whole entry): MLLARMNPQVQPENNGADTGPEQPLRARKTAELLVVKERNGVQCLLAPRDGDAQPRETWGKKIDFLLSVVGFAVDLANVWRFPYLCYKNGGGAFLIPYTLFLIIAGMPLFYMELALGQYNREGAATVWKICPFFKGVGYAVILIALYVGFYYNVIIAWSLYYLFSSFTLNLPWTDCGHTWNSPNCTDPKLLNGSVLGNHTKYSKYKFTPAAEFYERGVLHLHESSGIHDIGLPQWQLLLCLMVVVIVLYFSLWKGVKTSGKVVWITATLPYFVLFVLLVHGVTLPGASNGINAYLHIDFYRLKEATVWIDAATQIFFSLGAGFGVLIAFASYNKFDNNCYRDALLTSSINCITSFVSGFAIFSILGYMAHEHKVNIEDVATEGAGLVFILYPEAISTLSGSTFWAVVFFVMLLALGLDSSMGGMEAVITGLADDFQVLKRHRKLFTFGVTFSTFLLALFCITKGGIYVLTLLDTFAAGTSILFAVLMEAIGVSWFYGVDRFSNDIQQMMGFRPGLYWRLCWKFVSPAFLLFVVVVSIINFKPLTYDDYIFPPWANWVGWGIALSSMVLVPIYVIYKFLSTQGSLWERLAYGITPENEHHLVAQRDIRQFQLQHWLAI
T1 sequence (Q9Y5N1 whole entry): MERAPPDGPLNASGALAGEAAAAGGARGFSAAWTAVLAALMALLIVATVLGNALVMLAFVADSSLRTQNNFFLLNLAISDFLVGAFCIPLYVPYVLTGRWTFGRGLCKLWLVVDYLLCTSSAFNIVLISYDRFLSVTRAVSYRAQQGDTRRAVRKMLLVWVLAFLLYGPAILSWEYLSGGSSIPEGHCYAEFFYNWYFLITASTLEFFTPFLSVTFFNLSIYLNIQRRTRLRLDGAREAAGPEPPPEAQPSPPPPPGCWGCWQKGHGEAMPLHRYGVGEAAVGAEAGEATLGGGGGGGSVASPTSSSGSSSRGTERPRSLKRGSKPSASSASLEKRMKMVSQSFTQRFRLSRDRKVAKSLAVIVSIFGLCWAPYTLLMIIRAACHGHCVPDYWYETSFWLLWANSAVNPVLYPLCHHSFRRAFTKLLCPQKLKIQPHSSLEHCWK
T2 sequence (Q01959 whole entry): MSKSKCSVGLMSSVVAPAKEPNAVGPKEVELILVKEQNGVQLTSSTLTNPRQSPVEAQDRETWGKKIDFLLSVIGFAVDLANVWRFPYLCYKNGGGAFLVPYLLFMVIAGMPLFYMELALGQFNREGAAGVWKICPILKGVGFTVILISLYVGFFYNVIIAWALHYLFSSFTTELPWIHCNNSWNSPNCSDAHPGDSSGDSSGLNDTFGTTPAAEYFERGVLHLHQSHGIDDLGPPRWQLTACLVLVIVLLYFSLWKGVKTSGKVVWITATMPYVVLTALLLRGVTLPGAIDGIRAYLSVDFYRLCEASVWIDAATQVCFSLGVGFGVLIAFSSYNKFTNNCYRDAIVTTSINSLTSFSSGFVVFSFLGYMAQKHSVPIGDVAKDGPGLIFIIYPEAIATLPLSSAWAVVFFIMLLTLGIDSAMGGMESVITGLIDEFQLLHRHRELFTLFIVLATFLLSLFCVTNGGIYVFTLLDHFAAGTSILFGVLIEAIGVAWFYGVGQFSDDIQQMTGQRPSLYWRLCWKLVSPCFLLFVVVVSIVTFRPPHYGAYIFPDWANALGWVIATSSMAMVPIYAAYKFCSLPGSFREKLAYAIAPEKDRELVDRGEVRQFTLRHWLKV
Chain of SERT (P31645 whole entry, species assumed): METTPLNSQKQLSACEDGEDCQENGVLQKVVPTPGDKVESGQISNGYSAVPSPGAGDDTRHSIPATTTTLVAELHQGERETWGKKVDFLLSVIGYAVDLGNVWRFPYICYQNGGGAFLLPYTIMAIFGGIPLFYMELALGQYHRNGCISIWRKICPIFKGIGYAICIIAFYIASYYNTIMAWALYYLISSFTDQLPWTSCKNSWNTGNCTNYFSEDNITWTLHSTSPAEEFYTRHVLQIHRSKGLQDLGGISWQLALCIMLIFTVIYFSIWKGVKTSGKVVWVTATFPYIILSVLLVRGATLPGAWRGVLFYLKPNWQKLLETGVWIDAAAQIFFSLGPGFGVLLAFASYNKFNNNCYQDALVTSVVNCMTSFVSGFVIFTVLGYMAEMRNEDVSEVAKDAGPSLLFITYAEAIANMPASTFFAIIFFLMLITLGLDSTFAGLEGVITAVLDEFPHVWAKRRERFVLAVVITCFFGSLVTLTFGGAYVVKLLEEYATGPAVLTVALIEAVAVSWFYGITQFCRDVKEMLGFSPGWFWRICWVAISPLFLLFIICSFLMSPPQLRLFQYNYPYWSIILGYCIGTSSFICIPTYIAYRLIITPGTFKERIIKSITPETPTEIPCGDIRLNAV

Regarding `CN(C)CCCOc1c(Br)cc(CCN(C)C)cc1Br` [compound 1, aplysamine], the “affinity for and inhibition of H3 receptor” value (“affinity for and inhibition” below) in [1] is “displayed both affinity for, and inhibition of”.
Take `COc1ccc(C/C(=N\O)C(=O)NCCc2c[nH]cn2)cc1Br` [compound 2, verogamine]: the “affinity for and inhibition” value in series [1] is “displayed both affinity for, and inhibition of”.
Consider `C[C@H]1[C@H]2CC[C@H]3[C@@H]4CC=C5C[C@@H](N(C)C)CC[C@]5(C)[C@H]4CC[C@]23CN1C` [compound 3, conessine], for which, in series [1], the “affinity for and inhibition” value is “displayed both affinity for, and inhibition of”.
As for `CN(C)CCCOc1ccc(CCNC(=O)c2cc(Br)c[nH]2)cc1Br` [compound 4, dispyrin], the “affinity for and inhibition” value in series [1] is “displayed both affinity for, and inhibition of”.
As to `N=C(N)NCCCC1NCCc2c1[nH]c1ccccc21` (stereo not drawn) [compound 5, trypargine], the toxicity result in [2] is “highly toxic”.
Turning to `N=C(N)NCCC[C@H]1NCCc2c1[nH]c1cc(Br)ccc21` [compound 7, (+)-7-Bromotrypargine], the “effect on HCT116 cell viability” value in [3] is “no affect on HCT116 cell viability”. Moreover, the “% Inhibition (@10 μM)” value in [4] (10 μM, radioligand binding) is on record as 74%; in [5] (10 μM, radioligand binding), 81%; in series [6] (10 μM, radioligand binding), 82%. For the same compound, the inhibitory constant (Ki) in series [4] (binding) came to 1800 nM; in [5] (binding), 3000 nM; in [6] (binding), 1900 nM. Further, the results for the IC50 in series [7], in [8] and in [9] were 3600 nM, 3800 nM and 1900 nM, respectively. Further, the “pharmacological profile in panel of 68 targets” value in series [10] was “significant percent inhibition at only three targets”. The SERT activity result in [11] is “devoid of SERT activity”; in [11] (listed as (+)-7-bromotrypargine) it was “without inhibiting SERT”. Moreover, the “cytotoxicity: non-toxic up to” value in [12] is greater than 20 µM. Moreover, the antimalarial activity entry in series [13] is “found to possess antimalarial activity”.
The compound `NCCC[C@H]1NCCc2c1[nH]c1cc(Br)ccc21` [compound 21, (R)-3-(7-bromo-2,3,4,9-tetrahydro-1H-pyrido[3,4-b]indol-1-yl)propan-1-amine] registered an IC50 in [3] (Homo sapiens, HCT-116, 48 h) of 3000 nM. In addition, in series [3], the “effect on HCT116 cell viability” value is given as “completely killing the cells”. Further, the “cytotoxicity in multiple cell lines” value in series [3] (multiple non-transformed and colon cancer cell lines) is reported as “extremely cytotoxic”. Also, the “inhibition of proliferation (BrdU)” value in [14] and in series [15] was “dramatic affects inhibiting proliferation” in each case. Also, the “activity on cell viability” value in series [16] and in [17] was “significant activity on cell viability” each time.

Values taken from article PMC3254090 (ACS chemical neuroscience, 2011).
